In general, melting point refers to the temperature, or range, at which the solid turns liquid.

Structures can show the parent of a compound that is named as a salt.

Turning to `O=C(C=Cc1cccnc1)NCCCCC1CCN(C(=O)c2cccc3c2-c2ccccc2C3=O)CC1` [Substance 277, N-{4-[1-(9-oxo-9H-Fluorene-4-carbonyl)-piperidine-4-yl]-butyl}-3-(pyridin-3-yl)-acrylamide], the melting point fell in the range of 80 to 82 °C.
As for `CCN(CCCCC1CCN(C(c2ccccc2)c2ccccc2)CC1)C(=O)/C=C/c1cccnc1` [Substance 123, N-[4-(1-Diphenylmethylpiperidin-4-yl)-butyl]-N-ethyl-3-(pyridin-3-yl)-acrylamide], the figure is 115 to 117 °C; as for `O=C(C=Cc1cccnc1)NCCCCC1CCN(C(c2ccccc2)c2ccccc2)CC1` (as salt: methanesulfonate) [Substance 104, N-[4-(1-Diphenylmethylpiperidin-4-yl)-butyl]-3-(pyridin-3-yl)-acrylamide], 156 °C; as for `O=C(CCc1cccnc1)NCCCCC1CCN(C2c3ccccc3COc3ccccc32)CC1` (stereo not drawn) [Substance 230, N-{4-[1-(6,11-Dihydrodibenzo[b,e]-oxepin-11-yl)-piperidine-4-yl]-butyl}-3-(pyridin-3-yl)-propionamide], 110 to 112 °C.
To `O=C(C=CC=Cc1cccnc1)NCCCCC1CCN(C(c2ccccc2)c2ccccc2)CC1` [Substance 132, N-[4-(1-Diphenylmethylpiperidine-4-yl)-butyl]-5-(pyridin-3-yl)-2,4-pentadienoic Acid Amide] belongs 164 to 166 °C; to `O=C(C=Cc1cccnc1)NCCCOC1CCN(Cc2ccccc2)CC1` [Substance 55, N-[3-(1-Benzylpiperidine-4-yloxy)-propyl]-3-(pyridin-3-yl)-acrylamide], 100 to 102 °C.
To `O=C(C=Cc1cccnc1)NCCC1CCN(C(c2ccccc2)c2ccccc2)CC1` [Substance 95, N-[2-(1-Diphenylmethylpiperidin-4-yl)-ethyl]-3-(pyridin-3-yl)-acrylamide] belongs 141 to 143 °C.
With `Cl.Cl.O=C(C=Cc1cccnc1)NCCCCC1CCNCC1`, the melting point was 178 to 188 °C.
To `O=C(C=Cc1cccnc1)NCCCCC1CCN(Cc2ccccc2)CC1` [Substance 46, N-[4-(1-Benzylpiperidin-4-yl)-butyl]-3-(pyridin-3-yl)-acrylamide] belongs 88 to 90 °C.
As for `O=C(C=Cc1cccnc1)NCC1CN(C(c2ccccc2)c2ccccc2)C1` [Substance 2, N-(1-Diphenylmethylazetidin-3-ylmethyl)-3-(pyridin-3-yl)-acrylamide], the melting point lay within 72 to 74 °C.
`O=C(C=Cc1cccnc1)NCCCCC1CCN(C(c2ccc(F)cc2)c2ccc(F)cc2)CC1` [Substance 171, N-(4-{1-[bis-(4-Fluorophenyl)-methyl]-piperidin-4-yl}-butyl)-3-(pyridin-3-yl)-acrylamide]: the melting point stood at 108 °C.
As for `O=C(CCc1cccnc1)NCCCCCC1CCN(C(c2ccccc2)c2ccccc2)CC1` [Substance 142, N-[5-(1-Diphenylmethylpiperidin-4-yl)-pentyl]-3-(pyridin-3-yl)-propionamide], the figure is 112 to 114 °C.
In turn, `O=C(CCc1cccnc1)NCCCCC1CCN(S(=O)(=O)c2ccc3ccccc3c2)CC1` [Substance 337, N-{4-[1-(2-Naphthylsulfonyl)-piperidin-4-yl]-butyl}-3-(pyridin-3-yl)-propionamide] displayed a melting point of 103 to 105 °C.
Take `O=C(CCc1cccnc1)NCCCC1CCN(C(c2ccccc2)c2ccccc2)CC1` [Substance 96, N-[3-(1-Diphenylmethylpiperidin-4-yl)-propyl]-3-(pyridin-3-yl)-propionamide]: the melting point lay in the range of 109 to 110 °C.
Take `O=C(COc1cccnc1)NCCCCC1CCN(C(c2ccccc2)c2ccccc2)CC1` [Substance 129, N-[4-(1-Diphenylmethylpiperidin-4-yl)-butyl]-2-(pyridin-3-yloxy)-acetamide]: the melting point is 103 to 105 °C.

Source of the values: patent publication US6451816B1, “Use of pyridyl alkane, pyridyl alkene and/or pyridyl alkine acid amides in the treatment of tumors or for immunosuppression” (Klinge Pharma GmbH, priority 1997, dated 2002).
